Test results from patent US20240358889A1, “PEPTIDE-CONTAINING HYBRID HYDROGEL FOR BONE REGENERATION” (Ramot at Tel-Aviv University Ltd., priority 2022, published 2024).
Ends that are not written are not given here. * marks the point of attachment. Fmoc = O=C(OCC1c2ccccc2-c2ccccc21)*

Test: Rheological studies of the hydrogel (strain, frequency, shear rate, time sweep, step strain)
Format: physicochemical
Settings: fixed strain 0.1%, frequency 5 Hz, 37° C.

Fmoc-Phe-Phe [FmocFF]
storage modulus G′: 4,708 Pa
